Data on 16 compounds can be found in patent US4695569A, “Bicyclic heterocyclyl containing N-(bicyclic heterocyclyl)-4-piperidinamines” (Janssen Pharmaceutica N.V., priority 1987, dated 1987).

The structures appear in SMILES notation. Counter-ions that a name gives are not always drawn.

The test system of assay [1] is compound 48/80-induced lethality. As to the kind of experiment: Protection of rats from compound 48/80-induced lethality. Format: in vivo, rat (male, inbred Wistar strain). The note with it: Rattus norvegicus, 4 h, read-out: Compound 48/80 lethality test in rats-ED50. Here is the method:
Protection of rats from compound 48/80-induced lethality
The protection from compound 48/80-induced lethal circulatory collapse appears to be a simple way of evaluating quantitatively the antihistaminic activity of test compounds. Male rats of an inbred Wistar strain, weighing 240-260 g were used in the experiment. After overnight starvation the rats were transferred to conditioned laboratories (temp.=21±1° C., relative humidity=65±5%).
The rats were treated subcutaneously or orally with a test compound or with the solvent (NaCl solution, 0.9%). […] Survival after 4 hours is therefore considered to be a safe criterion of a protective effect of drug administration.
The ED50 -values of the compounds of formula (I) are listed in the first column of table 1. Said ED50 -values are the values in mg/kg body weight at which the tested compounds protect 50% of the tested animals against compound 48/80-induced lethality.

For assay [2], the system named is serotonin. As to the kind of experiment: Antagonistic activity on the effects of serotonin in the gastric lesion test (lesions induced by compound 48/80). Format: in vivo, rat (male, Wistar inbred strain). The note with it: Rattus norvegicus, po, 4 h; read-out: gastric lesion test ED50 (distension of the stomach and lesions in the glandular area completely absent in 50% of rats). The text has this:
The compounds of formula (I) and the pharmaceutically acceptable acid addition salts thereof are also potent serotonin-antagonists. The potency of the subject compounds as serotonin-antagonists is clearly evidenced by the results obtained in the following tests wherein the antagonistic activity of the subject compounds on the effect of serotonin is examined.
Antagonistic activity on the effects of serotonin in the gastric lesion test
Comound 48/80 (a mixture of oligomers obtained by condensation of 4-methoxy-N-methylbenzeneethanamine and formaldehyde) is a potent releaser of vasoactive amines from endogenous stores such as, for example, histamine and serotonin. […] The shock, followed by dead, can be avoided if the rats are pretreated with a classical H 1 antagonist.
Male rats of a Wistar inbred strain, weighing 220-250 g, were starved overnight, water being available ad libitum. The test compounds were administered orally as a solution or as a suspension in aqueous medium. A control rat and a "blank" rat received the test compound. One hour later 5-[4-(diphenylmethyl)-1-piperazinylmethyl]-1-methyl-1H-benzimidazole-2-methanol was administered subcutaneously to all rats at the dose of 2.5 mg/kg.
Four hours after the intravenous injection of compound 48/80, the rats were decapitated and the stomachs were removed. Subsequently the stomachs ere inspected for distension and contents (blood, fluid, food) and thoroughly rinsed. The macroscopic lesions were scored from 0 to +++, 0 corresponding to complete absence of visible lesions and the highest score corresponding to reddish rough patches covering more than half the glandular area.

Assay [3] deals with serotonin. The note with it: known serotonin-antagonists, rats treated with compound 48/80; cited from earlier work.

Take `Cn1c(=S)n(CCN2CCC(Nc3nc4ccccc4n3Cc3ccco3)CC2)c(=O)c2ccccc21` [Compound 129, 3-[2-[4-[[1-(2-furanylmethyl)-1H-benzimidazol-2-yl]amino]-1-piperidinyl]ethyl]-2,3-dihydro-1-methyl-2-thioxo-4(1H)-quinazolinone]: the ED50 in assay [1] turned out to be 0.08 mg/kg; in assay [2], 0.31 mg/kg.

Consider `Fc1ccc(Cn2c(NC3CCN(CCn4c(=S)[nH]c5ccccc54)CC3)nc3ccccc32)cc1` [Compound 142, 1-[2-[4-[[1-[(4-fluorophenyl)methyl]-1H-benzimidazole-2-yl]amino]-1-piperidinyl]ethyl]-1,3-dihydro-2H-benzimidazole-2-thione], for which the values for the ED50 in assay [1] and in assay [2] were 0.16 mg/kg and 0.63 mg/kg, respectively.

For the compound `Fc1ccc(Cn2c(NC3CCN(CCn4c(=S)[nH]c5cncnc54)CC3)nc3ccccc32)cc1` [Compound 143, 9-[2-[4-[[1-[(4-fluorophenyl)methyl]-1H-benzimidazol-2-yl]amino]-1-piperidinyl]ethyl]-7,9-dihydro-8H-purine-8-thione trihydrochloride.dihydrate], the values for the ED50 in assay [1] and in assay [2] were 0.31 mg/kg and 0.63 mg/kg, respectively.

Turning to `Cc1nc2nc(NCCN3CCC(Nc4nc5ccccc5n4Cc4ccc(F)cc4)CC3)ccc2[nH]1` [Compound 146, N-[2-[4-[[1-[(4-fluorophenyl)methyl]-1H-benzimidazol-2-yl]amino]-1-piperidinyl]ethyl]-2-methyl-1H-imidazo[4,5-b]pyridin-5-amine], the ED50 stood at 0.04 mg/kg in assay [1] and 0.08 mg/kg in assay [2].

As to `CCOC(=O)N1CCc2nc(NCCN3CCC(Nc4nc5ccccc5n4Cc4ccc(F)cc4)CC3)sc2C1` [Compound 147, ethyl 2-[[2-[4-[[1-[4-fluorophenyl)methyl]-1H-benzimidazol-2-yl]amino]-1-piperidinyl]ethyl]amino]-4,5-dihydro-thiazolo[4,5-d]pyridine-6(7H)-carboxylate (E)-2-butenedioate (1:2) monohydrate], the ED50 in assay [1] amounted to 0.31 mg/kg; in assay [2] it was 0.63 mg/kg.

For `Fc1ccc(Cn2c(NC3CCN(CCc4cn5ccsc5n4)CC3)nc3ccccc32)cc1` [Compound 149, 1-[(4-fluorophenyl)methyl]-N-[1-[2-(imidazo[2,1-b]thiazol-6-yl)ethyl]-4-piperidinyl]-1H-benzimidazol-2-amine], the ED50 in assay [1] and in assay [2] was 0.08 mg/kg in each case.

With `Fc1ccc(Cn2c(NC3CCN(CCc4cn5ccccc5n4)CC3)nc3ccccc32)cc1` [Compound 150, 1-[(4-fluorophenyl)methyl]-N-[1-[2-(imidazo[1,2-a]pyridin-2-yl)ethyl]-4-piperidinyl]-1H-benzimidazol-2-amine], the values for the ED50 in assay [1] and in assay [2] were 0.08 mg/kg and 0.63 mg/kg, respectively.

As to `Cl.Cl.Cl.Fc1ccc(Cn2c(NC3CCN(Cc4cn5c(n4)CNCC5)CC3)nc3ccccc32)cc1` [Compound 152, 1-[(4-fluorophenyl)methyl]-N-[1-[(5,6,7,8-tetrahydroimidazo[1,2-a]pyrazin-2-yl)methyl]-4-piperidinyl]-1H-benzimidazol-2-amine trihydrochloride], the ED50 in assay [1] is 0.08 mg/kg; in assay [2], 0.63 mg/kg.

Regarding `CN(C)CCCSc1ccccc1NC(=O)/C=C/c1ccccc1` [cinanserin], in assay [3], the “prevention of cyanosis of ears and extremities, lesions in the glandular area of the stomach and abnormal gastric distension” value (shortened to “prevention”) is listed as “prevent completely”.

Consider `CN1CCC(=C2c3ccccc3C=Cc3ccccc32)CC1` [cyproheptadine], for which the “prevention” value in assay [3] was “prevent completely”.

On to `CN1C[C@H](CNC(=O)OCc2ccccc2)C[C@@H]2c3cccc4c3c(cn4C)C[C@H]21` [metergoline], for which the “prevention” value in assay [3] is “prevent completely”.

As to `CC[C@@H](CO)NC(=O)[C@@H]1C=C2c3cccc4c3c(cn4C)C[C@H]2N(C)C1` [methysergide], the “prevention” value in assay [3] is reported as “prevent completely”.

For the compound `CN1CCN2c3ccccc3Cc3ccccc3C2C1` (stereo not drawn) [mianserin], in assay [3], the “prevention” value is reported as “prevent completely”.

As to `NC(=O)C1(N2CCCCC2)CCN(CCCC(=O)c2ccc(F)cc2)CC1` [pipamperone], the “prevention” value in assay [3] was “prevent completely”.

As for `CN1CCC(=C2c3ccccc3CCc3sccc32)CC1` [pizotifen], the “prevention” value in assay [3] was “prevent completely”.

`O=C(CCCN1CCC2(CC1)C(=O)NCN2c1ccccc1)c1ccc(F)cc1` [spiperone]: the “prevention” value in assay [3] was “prevent completely”.
